Reference: patent US20050192314A1, “Urea derivatives as C-kit modulators” (Ambit Biosciences Corporation, priority 2003, published 2005)

What was measured:
[1] = molecular target: T1, KIT(JMminus) (Homo sapiens, UniProt P10721); test: Binding constant (Kd) measurement, phage-displayed kinase competition binding assay: KIT(JMminus)
T1 construct: KIT(JMminus); made in house
Text: (§1) The term “ND” represents non-determined values.

[2] = molecular target: T2, KIT(DKIN) (Homo sapiens, UniProt P10721); test: Binding constant (Kd) measurement, phage-displayed kinase competition binding assay: KIT(DKIN)
T2 construct: KIT(DKIN); made in house
T2 sequence (P10721 589-937 limits assumed): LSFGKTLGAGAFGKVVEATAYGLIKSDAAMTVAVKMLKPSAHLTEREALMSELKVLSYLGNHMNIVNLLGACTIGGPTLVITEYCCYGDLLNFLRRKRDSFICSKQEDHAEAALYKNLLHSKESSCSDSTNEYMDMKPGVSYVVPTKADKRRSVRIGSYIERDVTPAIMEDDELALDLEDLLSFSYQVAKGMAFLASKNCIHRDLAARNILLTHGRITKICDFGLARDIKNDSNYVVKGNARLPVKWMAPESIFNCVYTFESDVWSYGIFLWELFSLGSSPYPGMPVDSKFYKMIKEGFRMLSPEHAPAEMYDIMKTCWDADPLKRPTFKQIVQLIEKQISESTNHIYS
Text: as §1

T1 sequence (P10721 589-937 limits assumed): as above

Row | SMILES | Kd [1] [nM] | Kd [2] [nM]
1 | CC(C)(C)c1cc(NC(=O)Nc2ccc(NC(=O)c3cscn3)cc2)no1 [Compound N57] | < 100 | –
2 | CC(C)(C)c1cc(NC(=O)Nc2ccc(NC(=O)c3cn4c(n3)sc3ccccc34)cc2)no1 [Compound N73] | < 100 | –
3 | CC(C)c1cc(NC(=O)Nc2ccc(NC(=O)C3CCN(c4ncc(C(F)(F)F)cc4Cl)CC3)cc2)no1 [Compound N59] | 100 to 1000 | –
4 | CC(C)(C)c1cc(NC(=O)Nc2ccc(NC(=O)c3cc4cccnc4nc3C(F)(F)F)cc2)no1 [Compound N61] | 100 to 1000 | –
5 | COc1cc(OC)nc(Oc2cccnc2C(=O)Nc2ccc(NC(=O)Nc3cc(C(C)(C)C)on3)cc2)n1 [Compound N56] | 100 to 1000 | –
6 | CC(C)(C)c1cc(NC(=O)Nc2ccc(NC(=O)C3=Cc4cc(F)cc(S(C)(=O)=O)c4C3)cc2)no1 [Compound N62] | < 100 | –
7 | CC(C)(C)c1cc(NC(=O)Nc2ccc(NC(=O)c3cc4cccc5c4n(c3=O)CC5)cc2)no1 [Compound N60] | < 100 | –
8 | COc1cc(OC)nc(Nc2cccc(C(=O)Nc3ccc(NC(=O)Nc4cc(C(C)(C)C)on4)cc3)c2)n1 [Compound N49] | < 100 | –
9 | CC(=O)c1c[nH]c(C(=O)Cc2ccc(NC(=O)Nc3cc(C(C)(C)C)on3)cc2)c1 [Compound N43] | < 100 | –
10 | CC(C)(C)c1cc(NC(=O)Nc2ccc(NC(=O)c3cc4cc(F)cc(S(C)(=O)=O)c4[nH]3)cc2)no1 [Compound N58] | 100 to 1000 | –
11 | CC(C)(C)c1cc(NC(=O)Nc2ccc(NC(=O)c3nnsc3Cc3ccc(Cl)cc3)cc2)no1 [Compound N71] | 100 to 1000 | –
12 | CC(C)(C)c1cc(NC(=O)Nc2ccc(NC(=O)c3ccccc3O)cc2)no1 [Compound N69] | 1000 to 10000 | –
13 | COc1ccnc(Nc2ccc(C(=O)Nc3ccc(NC(=O)Nc4cc(C(C)(C)C)on4)cc3)cc2)n1 [Compound N51] | < 100 | –
14 | CC(C)(C)c1cc(NC(=O)Nc2ccc(NC(=O)Cc3sc(-c4ccc(Cl)cc4)nc3-c3ccccc3)cc2)no1 [Compound N66] | < 100 | –
15 | CC(C)(C)c1cc(NC(=O)Nc2ccc(NC(=O)CNCC(=O)Nc3ccccc3)cc2)no1 [Compound N72] | < 100 | –
16 | CC(C)(C)c1cc(NC(=O)Nc2ccc(NC(=O)c3cc(N4CCOCC4)nc(N4CCOCC4)c3)cc2)no1 [Compound N54] | < 100 | –
17 | COc1cc(OC)nc(Sc2ccccc2C(=O)Nc2ccc(NC(=O)Nc3cc(C(C)(C)C)on3)cc2)n1 [Compound N47] | < 100 | –
18 | Cn1nc(C(F)(F)F)c2cc(C(=O)Nc3ccc(NC(=O)Nc4cc(C(C)(C)C)on4)cc3)sc21 [Compound N64] | 100 to 1000 | –
19 | Cn1nc(C(F)(F)F)c(C(=O)Nc2ccc(NC(=O)Nc3cc(C(C)(C)C)on3)cc2)c1Cl [Compound N68] | < 100 | –
20 | COc1cc(OC)nc(Oc2ccccc2C(=O)Nc2ccc(NC(=O)Nc3cc(C(C)(C)C)on3)cc2)n1 [Compound N70] | 100 to 1000 | –
21 | CC(=O)c1ccc(N2CCC(C(=O)Nc3ccc(NC(=O)Nc4cc(C(C)(C)C)on4)cc3)CC2)cc1 [Compound N65] | < 100 | –
22 | CC(C)(C)c1cc(NC(=O)Nc2ccc3c(c2)OCO3)no1 [Compound A56] | 100 to 1000 | –
23 | CC(C)(C)c1cc(NC(=O)Nc2ccc([N+](=O)[O-])cc2)no1 [Compound A21] | < 100 | –
24 | CC(C)(C)c1cc(NC(=O)Nc2ccc(NC(=O)c3cc(Br)cn(Cc4ccccc4)c3=O)cc2)no1 [Compound N67] | < 100 | –
25 | COc1ccc(NC(=O)Nc2cc(C(C)(C)C)on2)cc1OC [Compound A55] | 1000 to 10000 | –
26 | COC(=O)c1ccc(C(=O)Nc2ccc(NC(=O)Nc3cc(C(C)(C)C)on3)cc2)nc1 [Compound N12] | – | 100 to 1000
27 | CC(C)(C)c1cc(NC(=O)Nc2ccc(OCc3ccc(Cl)cc3)cc2)no1 [Compound G34] | – | < 100

Now from value to compound:

Row | Kd [1] [nM] | Kd [2] [nM] | SMILES
28 | < 100 | – | CC(C)(C)c1cc(NC(=O)Nc2ccc(NC(=O)c3cc(-c4ccc(O)cc4)cs3)cc2)no1 [Compound N77]
29 | < 100 | – | CCOC(=O)c1cccc(C(=O)Nc2ccc(NC(=O)Nc3cc(C(C)(C)C)on3)cc2)n1 [Compound N164]
30 | < 100 | – | CC(C)(C)c1cc(NC(=O)Nc2ccc(Nc3nc(N)nc4[nH]cnc34)cc2)no1 [Compound O6]
31 | < 100 | – | CC(C)(C)c1cc(NC(=O)Nc2ccc(NC(=O)c3sccc3OCc3cccc(C(F)(F)F)c3)cc2)no1 [Compound N183]
32 | 100 to 1000 | – | CC(C)c1nnsc1C(=O)Nc1ccc(NC(=O)Nc2cc(C(C)(C)C)on2)cc1 [Compound N182]
33 | < 100 | – | CC(C)(C)c1cc(NC(=O)Nc2ccc(NC(=O)c3csc(Cc4cccc(C(F)(F)F)c4)n3)cc2)no1 [Compound N180]
34 | < 100 | – | Cc1cnc(C(=O)Nc2ccc(NC(=O)Nc3cc(C(C)(C)C)on3)cc2)c(C(=O)O)n1 [Compound N160]
35 | < 100 | – | Cc1cc(NC(=O)c2cn3nc(Cl)ccc3n2)ccc1NC(=O)Nc1cc(C(C)(C)C)on1 [Compound N169]
36 | < 100 | – | COc1cc(OC)nc(C2CCCCC2C(=O)Nc2ccc(NC(=O)Nc3cc(C(C)(C)C)on3)cc2)n1 (stereo not drawn) [Compound N129]
37 | < 100 | – | CC(C)(C)c1cc(NC(=O)Nc2ccc(NC(=O)Cc3noc4ccccc34)cc2)no1 [Compound N80]
38 | < 100 | – | CC(C)(C)c1cc(NC(=O)Nc2ccc(NC(=O)c3nnsc3Sc3ccc(C(F)(F)F)cc3)cc2)no1 [Compound N179]
39 | < 100 | – | COc1cc(NC(=O)c2cn3nc(Cl)ccc3n2)ccc1NC(=O)Nc1cc(C(C)(C)C)on1 [Compound N171]
40 | < 100 | – | Cc1cc(NC(=O)[C@](C)(O)CSc2ccc(F)cc2)ccc1NC(=O)Nc1cc(C(C)(C)C)on1 [Compound N170]
41 | < 100 | – | CC(C)(C)c1cc(C(=O)Nc2ccc(NC(=O)Nc3cc(C(C)(C)C)on3)cc2)n(-c2ccccc2)n1 [Compound N78]
42 | 100 to 1000 | – | COc1cc(NC(=O)CCC(=O)N2CCNC(=O)CC2)ccc1NC(=O)Nc1cc(C(C)(C)C)on1 [Compound N172]
43 | < 100 | – | CC(C)(C)c1cc(NC(=O)Nc2ccc(NC(=O)c3ccc(Oc4ccnc(C(=O)O)c4)cc3)cc2)no1 [Compound N166]
44 | 100 to 1000 | – | COc1ccc(C(=O)c2c[nH]c(C(=O)Nc3ccc(NC(=O)Nc4cc(C(C)(C)C)on4)cc3)c2)cc1 [Compound N177]
45 | < 100 | – | Cc1nc(-c2ccccc2)sc1C(=O)Nc1ccc(NC(=O)Nc2cc(C(C)(C)C)on2)cc1 [Compound N181]
46 | < 100 | – | Cc1nc(-c2ccc(Cl)cc2)sc1C(=O)Nc1ccc(NC(=O)Nc2cc(C(C)(C)C)on2)cc1 [Compound N184]
47 | < 100 | – | CC(C)(C)c1cc(NC(=O)Nc2ccc(NC(=O)c3nccc4ccccc34)cc2)no1 [Compound N117]
48 | < 100 | – | CC(C)(C)c1cc(NC(=O)Nc2ccc(Nc3cc(N)nc(N)n3)cc2)no1 [Compound O7]
49 | < 100 | – | CN(C)c1ccc(C(=O)Nc2ccc(NC(=O)Nc3cc(C(C)(C)C)on3)cc2)cn1 [Compound N159]
50 | 1000 to 10000 | – | CC(C)(C)c1cc(NC(=O)Nc2ccc(NC(=O)c3cc(O)c4cccc(O)c4n3)cc2)no1 [Compound N176]
51 | < 100 | – | CC(C)(C)c1cc(NC(=O)Nc2ccc(NC(=O)c3cccnc3C(=O)O)cc2)no1 [Compound N165]
52 | < 100 | – | CC(C)(C)c1cc(NC(=O)Nc2ccc(NC(=O)c3nocc3C(C)(C)C)cc2)no1 [Compound N82]
53 | < 100 | – | CC(C)(C)c1cc(NC(=O)Nc2ccc(NC(=O)c3cccc[n+]3[O-])cc2)no1 [Compound N81]
54 | – | 1000 to 10000 | CC(C)(C)c1cc(NC(=O)Nc2ccc(NC(=O)c3ccc(Cl)cc3Cl)cc2)no1 [Compound N130]
